In patent US10513526B2, “Solid state forms of spiro-oxindole compounds” (Xenon Pharmaceuticals Inc., priority 2016, dated 2019):

Test: Melting of Form A0 in dry N2 (heated to 140° C., cooled to room temperature)
Type: physicochemical
Conditions: heated to 140° C. in dry N2 atmosphere, then cooled to room temperature and crushed
Description: A. The amorphous form of funapide was generated by melting Form A0 of funapide in a dry N2 atmosphere optionally using the VT stage on the XRPD unit. The sample was heated to 140° C. and then cooled to room temperature and crushed. […] The sample was confirmed to be the amorphous form of funapide by XRPD.

decomposition on melting: No decomposition was observed
SMILES: O=C1N(Cc2ccc(C(F)(F)F)o2)c2ccccc2[C@]12COc1cc3c(cc12)OCO3 [Form A0 of funapide]
